Test results from patent EP0562575B1, “N-substituted-3-(substituted hydrazino)-benzenesulfonamide derivative, preparation process thereof, and herbicidal compositions” (KUREHA KAGAKU KOGYO KABUSHIKI KAISHA, priority 1992, dated 1993).
Like-named read-outs stand apart in the source and are kept apart here.

Legend:
Assay type in all cases: in vivo
Amaranthus retroflexus [1] = experiment: Germination test of seeds (Petri dish); details: A.r., seeds in Petri dish, 28 °C, 14 days
Method: (§1) Two sheets of filter paper were placed in a superposed relation in each of Petri dishes having a diameter of 9 cm. Water suspensions of each test compound (concentrations of the active ingredient: 0.25 ppm and 2.5 ppm) were separately poured in an amount of 6ml per dish into the Petri dishes. Seeds of Amaranthus retroflexus, (Redroot pigweed), Bidens pilosa (Common blackjack), Matricaria chamomilla (Wild chamomile), Solanum nigrum (Black nightshade), Echinochloa crus-galli(Barnyard grass), Cyperus iria (Rice flatsedge) and Setaria viridis (Green foxtail) were placed at a rate of 10 seeds per dish in the Petri dishes. They were thereafter allowed to germinate in a constant-temperature chamber at 28 °C. Fourteen days later after placement in the Petri dishes, the degrees of germination and growth inhibition were observed visually. The observation results were ranked in accordance with the below-described 6-stage system.

Bidens pilosa [2] = experiment: Germination test of seeds (Petri dish); details: B.p., seeds in Petri dish, 28 °C, 14 days
Method: as §1

Cyperus iria = experiment: Germination test of seeds (Petri dish); details: C.i., seeds in Petri dish, 28 °C, 14 days
Method: as §1

Echinochloa crus-galli = experiment: Germination test of seeds (Petri dish); details: E.c., seeds in Petri dish, 28 °C, 14 days
Method: as §1

Matricaria chamomilla [3] = experiment: Germination test of seeds (Petri dish); details: M.c., seeds in Petri dish, 28 °C, 14 days
Method: as §1

Setaria viridis [4] = experiment: Germination test of seeds (Petri dish); details: S.v., seeds in Petri dish, 28 °C, 14 days
Method: as §1

Solanum nigrum [5] = experiment: Germination test of seeds (Petri dish); details: S.n., seeds in Petri dish, 28 °C, 14 days
Method: as §1

Abutilon theophrasti = experiment: Test on herbicidal activity by foliar application; details: A.t; 50 g/ha foliar spray, 2 - 4 leaf stage, 14 days
From the text: (§2) Herbicidal solutions of each test compound, which had been prepared by dissolving at predetermined concentrations such as wettable powder of the test compound as that described in the above formulation example, and sprayed at dosages of 5 g/ha and 50 g/ha over foliar parts of Amaranthus retroflexus, (Redroot pigweed), Bidens pilosa (Common blackjack), Sinapis arvensis (Wild mustard), Stellaria media (Common chickweed), Cassia obtusifolia (Sicklepod), Solanum nigrum (Black nightshade), Abutilon theophrasti (Velvetleaf), Convolvulus arvensis (Field bindweed), Matricaria chamomilla (Wild chamomile), Setaria viridis (Green foxtail), Echinochloa frumentaceum (Barnyard grass), Avena fatua (Wild oat), and Digitaria adscendens (Henry crabgrass) which had been allowed to grow individually to 2 - 4 leaf stage in pots. Fourteen days later after spraying of the test compound, its herbicidal acrivity was evaluated in accordance with the below-described system.
(§3) 0: no effects 1: less than 30% of total kill 2: 31 - 50% of total kill 3: 51 - 70% of total kill 4: 71 - 90% of total kill 5: 91 - 100% of total kill.

Amaranthus retroflexus [6] = experiment: Test on herbicidal activity by foliar application; details: A.r; 50 g/ha foliar spray, 2 - 4 leaf stage, 14 days
From the text: as §2, §3

Avena fatua = experiment: Test on herbicidal activity by foliar application; details: A.f.; 50 g/ha foliar spray, 2 - 4 leaf stage, 14 days
From the text: as §2, §3

Bidens pilosa [7] = experiment: Test on herbicidal activity by foliar application; details: B.p; 50 g/ha foliar spray, 2 - 4 leaf stage, 14 days
From the text: as §2, §3

Cassia obtusifolia = experiment: Test on herbicidal activity by foliar application; details: C.o.; 50 g/ha foliar spray, 2 - 4 leaf stage, 14 days
From the text: as §2, §3

Convolvulus arvensis = experiment: Test on herbicidal activity by foliar application; details: C.a.; 50 g/ha foliar spray, 2 - 4 leaf stage, 14 days
From the text: as §2, §3

Digitaria adscendens = experiment: Test on herbicidal activity by foliar application; details: D.a.; 50 g/ha foliar spray, 2 - 4 leaf stage, 14 days
From the text: as §2, §3

Echinochloa frumentaceum = experiment: Test on herbicidal activity by foliar application; details: E.f.; 50 g/ha foliar spray, 2 - 4 leaf stage, 14 days
From the text: as §2, §3

Matricaria chamomilla [8] = experiment: Test on herbicidal activity by foliar application; details: M.c; 50 g/ha foliar spray, 2 - 4 leaf stage, 14 days
From the text: as §2, §3

Setaria viridis [9] = experiment: Test on herbicidal activity by foliar application; details: S.v.; 50 g/ha foliar spray, 2 - 4 leaf stage, 14 days
From the text: as §2, §3

Sinapis arvensis = experiment: Test on herbicidal activity by foliar application; details: S.a.; 50 g/ha foliar spray, 2 - 4 leaf stage, 14 days
From the text: as §2, §3

Solanum nigrum [10] = experiment: Test on herbicidal activity by foliar application; details: S.n; 50 g/ha foliar spray, 2 - 4 leaf stage, 14 days
From the text: as §2, §3

Stellaria media = experiment: Test on herbicidal activity by foliar application; details: S.m.; 50 g/ha foliar spray, 2 - 4 leaf stage, 14 days
From the text: as §2, §3

Galium aparine = experiment: Test for selective herbicidal effect in post-emergence by treatment of stalks and leaves; details: 1 - to 2 - leaf stage, 21 days
Method: (§4) Wheat and the weed were reared from seeds in the planters in a glasshouse. When the young plants had reached the 1 - to 2 - leaf stage, the wettable powders prepared in the same manner as Preparation Example 1 described above were diluted with water to a prescribed concentration and sprayed uniformly to the stalks arid leaves of the plants and on the soil surface in the planters by a spray gun so that the acrive ingredient would be applied at a rate of 5 g/ha and 50 g/ha. Then the planters were kept in the glasshouse. Twenty-one days after said treatment, the herbicidal effect of the compositions on the weeds and phytotoxicity of the crops were observed and evaluated according to the following ratings.

Wheat = test system: Wheat; design: key: 0: no inhibition; less than 31%; 2: 31 - 50%; 3: 51 - 70%; 4: 71 - 90%; 5: 91 - 100%; details: 1 - to 2 - leaf stage, 21 days
Method: as §4

With `CC=NNc1ccc(C(=O)OC)c(S(=O)(=O)NC(=O)Nc2nc(OC)nc(OC)n2)c1` [Compound I-1] the Growth inhibition rate (Amaranthus retroflexus [1]; 0.25 ppm) was 3 (51 - 70%), the Growth inhibition rate (Amaranthus retroflexus [1]; 2.5 ppm) was 5 (91 - 100%) and the Growth inhibition rate (Bidens pilosa [2]; 0.25 ppm) was 3 (51 - 70%). The Growth inhibition rate (Bidens pilosa [2]; 2.5 ppm) was 4 (71 - 90%), the Growth inhibition rate (Cyperus iria; 0.25 ppm) was 2 (31 - 50%) and the Growth inhibition rate (Cyperus iria; 2.5 ppm) was 4 (71 - 90%). For the same compound, the Growth inhibition rate (Echinochloa crus-galli; 0.25 ppm) was 2 (31 - 50%), the Growth inhibition rate (Echinochloa crus-galli; 2.5 ppm) was 3 (51 - 70%) and the Growth inhibition rate (Matricaria chamomilla [3]; 0.25 ppm) was 2 (31 - 50%). For the same compound, the Growth inhibition rate (Matricaria chamomilla [3]; 2.5 ppm) was 4 (71 - 90%), the Growth inhibition rate (Setaria viridis [4]; 0.25 ppm) was 3 (51 - 70%) and the Growth inhibition rate (Setaria viridis [4]; 2.5 ppm) was 4 (71 - 90%). For the same compound, the Growth inhibition rate (Solanum nigrum [5]; 0.25 ppm) was 2 (31 - 50%), the Growth inhibition rate (Solanum nigrum [5]; 2.5 ppm) was 3 (51 - 70%) and the Herbicidal activity (Abutilon theophrasti) was 5 (91 - 100% of total kill). For the same compound, the Herbicidal activity (Amaranthus retroflexus [6]) was 5 (91 - 100% of total kill), the Herbicidal activity (Avena fatua) was 2 (31 - 50% of total kill) and the Herbicidal activity (Bidens pilosa [7]) was 5 (91 - 100% of total kill). For the same compound, the Herbicidal activity (Cassia obtusifolia) was 5 (91 - 100% of total kill), the Herbicidal activity (Convolvulus arvensis) was 5 (91 - 100% of total kill) and the Herbicidal activity (Digitaria adscendens) was 4 (71 - 90% of total kill). The Herbicidal activity (Echinochloa frumentaceum) was 3 (51 - 70% of total kill), the Herbicidal activity (Matricaria chamomilla [8]) was 5 (91 - 100% of total kill) and the Herbicidal activity (Setaria viridis [9]) was 3 (51 - 70% of total kill). The Herbicidal activity (Sinapis arvensis) was 5 (91 - 100% of total kill), the Herbicidal activity (Solanum nigrum [10]) was 5 (91 - 100% of total kill) and the Herbicidal activity (Stellaria media) was 5 (91 - 100% of total kill). The “Growth inhibition rate (herbicidal effect)” value (Galium aparine; 5 g/ha post-emergence spray) was 5 (91 - 100%), the “Growth inhibition rate (herbicidal effect)” value (Galium aparine; 50 g/ha post-emergence spray) was 5 (91 - 100%) and the “Growth inhibition rate (phytotoxicity of the crops)” value (Wheat; 5 g/ha post-emergence spray) was 0. For the same compound, the “Growth inhibition rate (phytotoxicity of the crops)” value (Wheat; 50 g/ha post-emergence spray) was 0.
